This is an account of results in patent publication US20260183274A1, “PDK1 REGULATORY COMPOUND AND COMPOSITION CONTAINING THE SAME” (PROVIBIO CO., LTD., priority 2024, published 2026).

Format in all cases: cell-based
For series [1], the system named is Human B Lymphocyte cell line, SU-DHL-8. The series can be described thus: Relative cell viability CCK-8, SU-DHL-8. The following applies: for viability at 1 µM / viability at 10 µM / viability at 30 µM / viability at 50 µM: Homo sapiens, SU-DHL-8, 48 h; for viability at 1 µM: read-out: Relative cell viability (%), SU-DHL-8, 1 μM; for viability at 10 µM: read-out: Relative cell viability (%), SU-DHL-8, 10 μM; for viability at 30 µM: read-out: Relative cell viability (%), SU-DHL-8, 30 μM; for viability at 50 µM: read-out: Relative cell viability (%), SU-DHL-8, 50 μM. The procedure, abridged: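 Cells grown in RPMI-1640 with 10% FBS, treated with compound at several concentrations, then given CCK-8 for 4 h at 37° C. Viability expressed as percent of DMSO-treated cells.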

Series [2] concerns Human Head and Neck cancer, Fadu. The series can be described thus: Relative cell viability CCK-8, Fadu. The settings on record: Fadu cells, relative to untreated cells; for viability at 1 µM / viability at 10 µM / viability at 30 µM / viability at 50 µM: Homo sapiens, FaDu. The procedure: Human-derived head and neck cancer cell line Fadu and osteosarcoma cell line Saos-2 were cultured in MEM medium containing 10% FBS, 100 U/mL penicillin, and 100 μg/mL streptomycin.
(§1) Following stabilization, the cells were harvested using Trypsin-EDTA treatment, centrifuged at 1,200 rpm for 3 minutes, the supernatant was removed, and the cells were resuspended in the same medium. They were then seeded into a 96-well plate (Costar 96-well cell culture plate, Corning) at 100 μL per well, and the conditions were adjusted as indicated in Table 5.
(§2) The cells were cultured in a 5% CO2 incubator at 37° C. for 24 hours, and after stabilization of the cells, each plate was washed with 200 μL of PBS per well and treated with 50 μL of culture medium per well.
(§3) After that, 10 μL of CCK-8 was added to each well, and the plate was incubated again at 37° C. in a 5% CO2 incubator for 2 hours.
(§4) In other words, when the survival rate of untreated cells (DMSO) is set at 100%, the relative cell survival rate in each group treated with the drug at different concentrations is indicated.

The test system of series [3] is T cells isolated from mouse spleens. The series can be described thus: T cell proliferation inhibition (CFSE flow cytometry, anti-CD3/anti-CD28 stimulation). The following applies: mouse spleen T cells, 3 days; for inhibition at 0.01 µM / inhibition at 0.1 µM / inhibition at 1 µM / inhibition at 10 µM / inhibition at 30 µM / inhibition at 50 µM: Mus musculus, T-cell, 72 h, read-out: Proliferation inhibition rate (%). The procedure, abridged: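 Splenic T cells from 7-week-old C57BL/6 mice were MACS-isolated, CFSE-labelled, seeded at 2×10^5 cells/well and activated with anti-CD3/anti-CD28 (0.5 μg/mL each). Compound at 10 nM–50 μM (six levels, triplicate) was present for 3 days at 37 °C before flow cytometric readout of proliferation inhibition rate.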
For orientation: In flow cytometry, cells or beads pass a laser one at a time.

The subject of series [4] is Human Bladder cancer cell, T24. Kind of series: Relative cell viability CCK-8, T24. The following applies: Homo sapiens, 48 h. The procedure: Human-derived breast cancer cell line MCF-7, human-derived lung cancer cell line A549, human-derived colorectal cancer cell line HCT-116, human pancreatic cancer cell line AsPC-1, glioblastoma cell line A172, and melanoma cell line Malme-3M were obtained from the Korean Cell Bank. gastric cancer cell line SNU-719, and bladder cancer cell line T24 were cultured in RPMI-1640 medium containing 10% FBS.
as §1, §2, §3, §4

The mark [5] stands for this setting: 48 hours, untreated (DMSO) = 100%.
The mark [6] stands for this setting: 1 μM, 48 hours, untreated (DMSO) = 100%.
The mark [7] stands for this setting: 10 μM, 48 hours, untreated (DMSO) = 100%.
Where [8] appears, read: 30 μM, 48 hours, untreated (DMSO) = 100%.
The mark [9] stands for this setting: 50 μM, 48 hours, untreated (DMSO) = 100%.

In general, viability refers to a per cent measure of how many cells are alive, often set against a control. On to `CN(C)C1CCCCN(CCCCCCCCCCCCNC(=O)c2cccnc2N)C1` (stereo not drawn) [Compound 45, 2-Amino-N-(12-(3-(dimethylamino)azepan-1-yl)dodecyl)nicotinamide], for which the viability at 1 µM in series [1] (setting [5]) amounted to 1.91%; in series [2] (1 μM), 29.8%; in series [4] (1 μM) it was 9.91%. Moreover, the viability at 10 µM turned out to be 1.27% in series [1] (setting [5]), 74.1% in series [2] (10 μM) and 11% in series [4] (10 μM). Also, the viability at 30 µM in series [1] (setting [5]) is 0.53%; in series [2] (30 μM), 60%; in series [4] (30 μM), 9.95%. Also, in series [1] (human, 48 h, 50 µM), the “Relative cell viability (%), SU-DHL-8” value was −1.31%. In addition, the viability at 50 µM in series [2] (50 μM) was found to be 18.2%; in series [4] (50 μM), 9.04%. Further, the inhibition at 0.01 µM in series [3] (compound 10 nM) is 0.16%. Moreover, the inhibition at 0.1 µM in series [3] (compound 100 nM) is 100%. Also, in series [3] (compound 1 μM), the inhibition at 1 µM was 100%. In addition, the inhibition at 10 µM in series [3] (compound 10 μM) was determined as 100%. The inhibition at 30 µM in series [3] (compound 30 μM) worked out at 100%. Also, the inhibition at 50 µM in series [3] (compound 50 μM) was found to be 100%.
For `Nc1ncccc1C(=O)NCCCCCCCCCCCCN1CCN(CCO)CC1` [Compound 54, 2-Amino-N-(12-(4-(2-hydroxyethyl)piperazin-1-yl)dodecyl) nicotinamide], the “Relative cell viability (%), SU-DHL-8” value is on record as 6.42% in series [1] (setting [6]), 4.05% in series [1] (setting [7]), 3.26% in series [1] (setting [8]) and 2.23% in series [1] (setting [9]). Also, the “Relative cell viability (%)” value is on record as 24.97% in series [2] (1 μM), 33.03% in series [2] (10 μM), 32.41% in series [2] (30 μM) and 18.65% in series [2] (50 μM). For the same compound, the “Proliferation inhibition rate (%)” value was −43.03% in series [3] (compound 10 nM); 100.00% in series [3] (compound 100 nM); 100.00% in series [3] (compound 1 μM); 100.00% in series [3] (compound 10 μM); 100.00% in series [3] (compound 30 μM); 100.00% in series [3] (compound 50 μM).
`Cc1ccc(OC2CCN(CCCCCCCCCCCCNC(=O)c3cccnc3N)CC2)cc1` [Compound 51, 2-Amino-N-(12-(4-(p-tolyloxy)piperidin-1-yl)dodecyl) nicotinamide]: the results for the “Relative cell viability (%)” value in series [2] (1 μM), in series [2] (10 μM) and in series [2] (50 μM) were 24.93%, 17.30% and 7.69%, respectively. Also, the “Proliferation inhibition rate (%)” value in series [3] (compound 10 nM) came out at 0.77%; in series [3] (compound 100 nM), 16.10%; in series [3] (compound 1 μM), 100.00%; in series [3] (compound 10 μM) it was 100.00%; in series [3] (compound 30 μM), 100.00%; in series [3] (compound 50 μM), 100.00%.
With `Nc1ncccc1C(=O)NCCCCCCCCCCCCN1CCC(c2ccc([N+](=O)[O-])cc2)CC1` [Compound 44, 2-Amino-N-(12-(4-(4-nitrophenyl)piperidin-1-yl)dodecyl)nicotinamide], in series [1] (setting [5]), the viability at 1 µM was determined as 6.14%, the viability at 10 µM worked out at 4.91%, the viability at 30 µM was determined as 2.54% and the viability at 50 µM was 1.41%. The viability at 1 µM in series [2] (1 μM) worked out at 1.22%. The same compound displayed a viability at 10 µM in series [2] (10 μM) of 5.89%. The viability at 30 µM in series [2] (30 μM) was 2.94%. Further, in series [3] (compound 10 nM), the inhibition at 0.01 µM is -6.21%. Also, the inhibition at 0.1 µM in series [3] (compound 100 nM) stood at 100%. The inhibition at 1 µM in series [3] (compound 1 μM) came out at 100%. The inhibition at 10 µM in series [3] (compound 10 μM) was 100%. Further, the inhibition at 30 µM in series [3] (compound 30 μM) came out at 100%. Besides, the inhibition at 50 µM in series [3] (compound 50 μM) was found to be 100%.
Turning to `CC1CN(C)C(CCCCCCCCCCCCNc2ccc3cncnc3n2)N1` (stereo not drawn) [Compound 43], the “Relative cell viability (%), SU-DHL-8” value is recorded as 22.61% in series [1] (setting [6]), 11.93% in series [1] (setting [7]), 2.34% in series [1] (setting [8]) and 1.58% in series [1] (setting [9]). Moreover, the “Proliferation inhibition rate (%)” value in series [3] (compound 10 nM) is listed as −10.80%; in series [3] (compound 100 nM), 100.00%; in series [3] (compound 1 μM), 100.00%; in series [3] (compound 10 μM), 100.00%; in series [3] (compound 30 μM), 100.00%; in series [3] (compound 50 μM) it was 100.00%.
In the case of `CN(C)C1CCN(CCCCCCCCCCCCNC(=O)c2cccnc2N)C1` (stereo not drawn) [Compound 19, 2-Amino-N-(12-(3-(dimethylamino)pyrrolidin-1-yl)dodecyl)nicotinamide], in series [1] (setting [5]), the viability at 1 µM came out at 8.51%, the viability at 10 µM is 7.51%, the viability at 30 µM was 5.98% and the viability at 50 µM was 5.08%. Besides, the inhibition at 0.01 µM in series [3] (compound 10 nM) is -14.4%. The inhibition at 0.1 µM in series [3] (compound 100 nM) was 100%. Further, in series [3] (compound 1 μM), the inhibition at 1 µM was found to be 100%. In addition, in series [3] (compound 10 μM), the inhibition at 10 µM turned out to be 100%. The inhibition at 30 µM in series [3] (compound 30 μM) turned out to be 100%. The inhibition at 50 µM in series [3] (compound 50 μM) turned out to be 100%.
On to `Nc1ncccc1C(=O)NCCCCCCCCCCCCN1CCC(O)CC1` [Compound 47, 2-Amino-N-(12-(4-hydroxypiperidin-1-yl)dodecyl)nicotinamide], for which the viability at 1 µM in series [1] (setting [5]) was determined as 11.7%; in series [2] (1 μM), 10%. For the same compound, the results for the viability at 10 µM in series [1] (setting [5]) and in series [2] (10 μM) were 10% and 19.9%, respectively. For the same compound, the figures for the viability at 30 µM in series [1] (setting [5]) and in series [2] (30 μM) were 9.4% and 7.34%, respectively. The viability at 50 µM in series [1] (setting [5]) came out at 8.33%; in series [2] (50 μM) it was 5.02%. For the same compound, in series [3] (compound 10 nM), the inhibition at 0.01 µM was -28.8%. The inhibition at 0.1 µM in series [3] (compound 100 nM) stood at 100%. Besides, in series [3] (compound 1 μM), the inhibition at 1 µM stood at 100%. In addition, the inhibition at 10 µM in series [3] (compound 10 μM) stood at 100%. For the same compound, in series [3] (compound 30 μM), the inhibition at 30 µM was 100%. For the same compound, in series [3] (compound 50 μM), the inhibition at 50 µM was 100%.
For `Cl.Nc1ncccc1C(=O)NCCCCCCCCCCCCN1CC[C@H](N)C1` [Compound 50, (S)-2-Amino-N-(12-(3-aminopyrrolidin-1-yl)dodecyl) nicotinamide hydrochloride], the “Relative cell viability (%), SU-DHL-8” value in series [1] (setting [6]) is listed as 9.20%; in series [1] (setting [7]), 8.18%; in series [1] (setting [8]) it was 6.18%; in series [1] (setting [9]) it was 4.31%. Besides, the “Relative cell viability (%)” value is 20.78% in series [2] (1 μM), 26.55% in series [2] (10 μM), 23.42% in series [2] (30 μM) and 7.05% in series [2] (50 μM). Also, the “Proliferation inhibition rate (%)” value is reported as −7.48% in series [3] (compound 10 nM); 100.00% in series [3] (compound 100 nM); 100.00% in series [3] (compound 1 μM); 100.00% in series [3] (compound 10 μM); 100.00% in series [3] (compound 30 μM); 100.00% in series [3] (compound 50 μM).
